Source: the NIST ThermoML archive (doi:10.1016/j.fluid.2005.02.009)
Numbers after ± are expanded uncertainties.

Conditions: Liquid

`CCOCCO` [2-ethoxyethan-1-ol] showed a viscosity (293.15 K, 100 kPa) of 2.073 ± 0.049 mPa·s, a viscosity (293.15 K, 20000 kPa) of 2.417 ± 0.12 mPa·s and a viscosity (293.15 K, 40000 kPa) of 2.776 ± 0.14 mPa·s. For the same compound, the viscosity (293.15 K, 60000 kPa) was 3.145 ± 0.16 mPa·s, the viscosity (293.15 K, 80000 kPa) was 3.509 ± 0.17 mPa·s and the viscosity (293.15 K, 100000 kPa) was 3.859 ± 0.19 mPa·s. For the same compound, the viscosity (303.15 K, 100 kPa) was 1.663 ± 0.039 mPa·s, the viscosity (303.15 K, 20000 kPa) was 1.922 ± 0.095 mPa·s and the viscosity (303.15 K, 40000 kPa) was 2.21 ± 0.11 mPa·s. The viscosity (303.15 K, 60000 kPa) was 2.512 ± 0.12 mPa·s, the viscosity (303.15 K, 80000 kPa) was 2.816 ± 0.14 mPa·s and the viscosity (303.15 K, 100000 kPa) was 3.115 ± 0.15 mPa·s. For the same compound, the viscosity (313.15 K, 100 kPa) was 1.346 ± 0.032 mPa·s, the viscosity (313.15 K, 20000 kPa) was 1.599 ± 0.079 mPa·s and the viscosity (313.15 K, 40000 kPa) was 1.834 ± 0.091 mPa·s. The viscosity (313.15 K, 60000 kPa) was 2.071 ± 0.1 mPa·s, the viscosity (313.15 K, 80000 kPa) was 2.308 ± 0.11 mPa·s and the viscosity (313.15 K, 100000 kPa) was 2.543 ± 0.13 mPa·s. For the same compound, the viscosity (323.15 K, 100 kPa) was 1.117 ± 0.026 mPa·s, the viscosity (323.15 K, 20000 kPa) was 1.32 ± 0.065 mPa·s and the viscosity (323.15 K, 40000 kPa) was 1.529 ± 0.076 mPa·s. It also gave a viscosity (323.15 K, 60000 kPa) of 1.743 ± 0.086 mPa·s, a viscosity (323.15 K, 80000 kPa) of 1.931 ± 0.096 mPa·s and a viscosity (323.15 K, 100000 kPa) of 2.13 ± 0.11 mPa·s. The viscosity (333.15 K, 100 kPa) was 0.941 ± 0.022 mPa·s, the viscosity (333.15 K, 20000 kPa) was 1.081 ± 0.054 mPa·s and the viscosity (333.15 K, 40000 kPa) was 1.236 ± 0.061 mPa·s. It also gave a viscosity (333.15 K, 60000 kPa) of 1.408 ± 0.07 mPa·s, a viscosity (333.15 K, 80000 kPa) of 1.592 ± 0.079 mPa·s and a viscosity (333.15 K, 100000 kPa) of 1.787 ± 0.088 mPa·s. The viscosity (343.15 K, 100 kPa) was 0.804 ± 0.019 mPa·s, the viscosity (343.15 K, 20000 kPa) was 0.939 ± 0.046 mPa·s and the viscosity (343.15 K, 40000 kPa) was 1.078 ± 0.053 mPa·s. For the same compound, the viscosity (343.15 K, 60000 kPa) was 1.221 ± 0.06 mPa·s, the viscosity (343.15 K, 80000 kPa) was 1.362 ± 0.067 mPa·s and the viscosity (343.15 K, 100000 kPa) was 1.5 ± 0.074 mPa·s. The viscosity (353.15 K, 100 kPa) was 0.695 ± 0.017 mPa·s, the viscosity (353.15 K, 20000 kPa) was 0.829 ± 0.041 mPa·s and the viscosity (353.15 K, 40000 kPa) was 0.953 ± 0.047 mPa·s. It also gave a viscosity (353.15 K, 60000 kPa) of 1.068 ± 0.053 mPa·s, a viscosity (353.15 K, 80000 kPa) of 1.172 ± 0.058 mPa·s and a viscosity (353.15 K, 100000 kPa) of 1.265 ± 0.063 mPa·s.

For `CC(C)OCCO` [2-isopropoxyethanol], the viscosity (293.15 K, 100 kPa) was 2.38 ± 0.056 mPa·s, the viscosity (293.15 K, 20000 kPa) was 2.939 ± 0.14 mPa·s and the viscosity (293.15 K, 40000 kPa) was 3.493 ± 0.17 mPa·s. It also gave a viscosity (293.15 K, 60000 kPa) of 4.073 ± 0.2 mPa·s, a viscosity (293.15 K, 80000 kPa) of 4.661 ± 0.23 mPa·s and a viscosity (293.15 K, 100000 kPa) of 5.241 ± 0.26 mPa·s. For the same compound, the viscosity (303.15 K, 100 kPa) was 1.87 ± 0.044 mPa·s, the viscosity (303.15 K, 20000 kPa) was 2.284 ± 0.11 mPa·s and the viscosity (303.15 K, 40000 kPa) was 2.691 ± 0.13 mPa·s. For the same compound, the viscosity (303.15 K, 60000 kPa) was 3.123 ± 0.15 mPa·s, the viscosity (303.15 K, 80000 kPa) was 3.566 ± 0.18 mPa·s and the viscosity (303.15 K, 100000 kPa) was 4.008 ± 0.2 mPa·s. It also gave a viscosity (313.15 K, 100 kPa) of 1.506 ± 0.036 mPa·s, a viscosity (313.15 K, 20000 kPa) of 1.861 ± 0.092 mPa·s and a viscosity (313.15 K, 40000 kPa) of 2.186 ± 0.11 mPa·s. For the same compound, the viscosity (313.15 K, 60000 kPa) was 2.512 ± 0.12 mPa·s, the viscosity (313.15 K, 80000 kPa) was 2.838 ± 0.14 mPa·s and the viscosity (313.15 K, 100000 kPa) was 3.162 ± 0.16 mPa·s. For the same compound, the viscosity (323.15 K, 100 kPa) was 1.228 ± 0.029 mPa·s, the viscosity (323.15 K, 20000 kPa) was 1.485 ± 0.074 mPa·s and the viscosity (323.15 K, 40000 kPa) was 1.731 ± 0.086 mPa·s. It also gave a viscosity (323.15 K, 60000 kPa) of 2.002 ± 0.099 mPa·s, a viscosity (323.15 K, 80000 kPa) of 2.296 ± 0.11 mPa·s and a viscosity (323.15 K, 100000 kPa) of 2.611 ± 0.13 mPa·s. The viscosity (333.15 K, 100 kPa) was 1.024 ± 0.024 mPa·s, the viscosity (333.15 K, 20000 kPa) was 1.25 ± 0.062 mPa·s and the viscosity (333.15 K, 40000 kPa) was 1.48 ± 0.073 mPa·s. For the same compound, the viscosity (333.15 K, 60000 kPa) was 1.72 ± 0.085 mPa·s, the viscosity (333.15 K, 80000 kPa) was 1.966 ± 0.097 mPa·s and the viscosity (333.15 K, 100000 kPa) was 2.212 ± 0.11 mPa·s. It also gave a viscosity (343.15 K, 100 kPa) of 0.864 ± 0.021 mPa·s, a viscosity (343.15 K, 20000 kPa) of 1.046 ± 0.052 mPa·s and a viscosity (343.15 K, 40000 kPa) of 1.236 ± 0.061 mPa·s. For the same compound, the viscosity (343.15 K, 60000 kPa) was 1.445 ± 0.071 mPa·s, the viscosity (343.15 K, 80000 kPa) was 1.669 ± 0.083 mPa·s and the viscosity (343.15 K, 100000 kPa) was 1.903 ± 0.094 mPa·s. It also gave a viscosity (353.15 K, 100 kPa) of 0.739 ± 0.018 mPa·s, a viscosity (353.15 K, 20000 kPa) of 0.927 ± 0.046 mPa·s and a viscosity (353.15 K, 40000 kPa) of 1.09 ± 0.054 mPa·s. For the same compound, the viscosity (353.15 K, 60000 kPa) was 1.236 ± 0.061 mPa·s, the viscosity (353.15 K, 80000 kPa) was 1.368 ± 0.068 mPa·s and the viscosity (353.15 K, 100000 kPa) was 1.536 ± 0.076 mPa·s.

`COCCO` [2-methoxyethan-1-ol] showed a viscosity (293.15 K, 100 kPa) of 1.707 ± 0.04 mPa·s, a viscosity (293.15 K, 20000 kPa) of 1.948 ± 0.096 mPa·s and a viscosity (293.15 K, 40000 kPa) of 2.186 ± 0.11 mPa·s. For the same compound, the viscosity (293.15 K, 60000 kPa) was 2.426 ± 0.12 mPa·s, the viscosity (293.15 K, 80000 kPa) was 2.659 ± 0.13 mPa·s and the viscosity (293.15 K, 100000 kPa) was 2.878 ± 0.14 mPa·s. It also gave a viscosity (303.15 K, 100 kPa) of 1.398 ± 0.033 mPa·s, a viscosity (303.15 K, 20000 kPa) of 1.583 ± 0.078 mPa·s and a viscosity (303.15 K, 40000 kPa) of 1.777 ± 0.088 mPa·s. The viscosity (303.15 K, 60000 kPa) was 1.977 ± 0.098 mPa·s, the viscosity (303.15 K, 80000 kPa) was 2.176 ± 0.11 mPa·s and the viscosity (303.15 K, 100000 kPa) was 2.367 ± 0.12 mPa·s. For the same compound, the viscosity (313.15 K, 100 kPa) was 1.162 ± 0.027 mPa·s, the viscosity (313.15 K, 20000 kPa) was 1.339 ± 0.066 mPa·s and the viscosity (313.15 K, 40000 kPa) was 1.489 ± 0.073 mPa·s. For the same compound, the viscosity (313.15 K, 60000 kPa) was 1.647 ± 0.081 mPa·s, the viscosity (313.15 K, 80000 kPa) was 1.814 ± 0.089 mPa·s and the viscosity (313.15 K, 100000 kPa) was 1.988 ± 0.098 mPa·s. For the same compound, the viscosity (323.15 K, 100 kPa) was 0.984 ± 0.023 mPa·s, the viscosity (323.15 K, 20000 kPa) was 1.135 ± 0.056 mPa·s and the viscosity (323.15 K, 40000 kPa) was 1.268 ± 0.063 mPa·s. For the same compound, the viscosity (323.15 K, 60000 kPa) was 1.405 ± 0.069 mPa·s, the viscosity (323.15 K, 80000 kPa) was 1.544 ± 0.076 mPa·s and the viscosity (323.15 K, 100000 kPa) was 1.685 ± 0.083 mPa·s. The viscosity (333.15 K, 100 kPa) was 0.843 ± 0.02 mPa·s, the viscosity (333.15 K, 20000 kPa) was 0.965 ± 0.048 mPa·s and the viscosity (333.15 K, 40000 kPa) was 1.084 ± 0.053 mPa·s. It also gave a viscosity (333.15 K, 60000 kPa) of 1.21 ± 0.06 mPa·s, a viscosity (333.15 K, 80000 kPa) of 1.338 ± 0.066 mPa·s and a viscosity (333.15 K, 100000 kPa) of 1.466 ± 0.072 mPa·s. For the same compound, the viscosity (343.15 K, 100 kPa) was 0.731 ± 0.017 mPa·s, the viscosity (343.15 K, 20000 kPa) was 0.852 ± 0.042 mPa·s and the viscosity (343.15 K, 40000 kPa) was 0.958 ± 0.047 mPa·s. For the same compound, the viscosity (343.15 K, 60000 kPa) was 1.058 ± 0.052 mPa·s, the viscosity (343.15 K, 80000 kPa) was 1.149 ± 0.057 mPa·s and the viscosity (343.15 K, 100000 kPa) was 1.231 ± 0.061 mPa·s. It also gave a viscosity (353.15 K, 100 kPa) of 0.635 ± 0.015 mPa·s, a viscosity (353.15 K, 20000 kPa) of 0.738 ± 0.036 mPa·s and a viscosity (353.15 K, 40000 kPa) of 0.834 ± 0.041 mPa·s. The viscosity (353.15 K, 60000 kPa) was 0.924 ± 0.046 mPa·s, the viscosity (353.15 K, 80000 kPa) was 1.006 ± 0.05 mPa·s and the viscosity (353.15 K, 100000 kPa) was 1.08 ± 0.053 mPa·s.
